One test concerns FcγRIIIa V176. The experiment in a line: Surface plasmon resonance (Biacore) binding of mAb3 from treated cultures to FcγRIIIa. The conditions noted are these: for Fold change (affinity vs control): mAb3, 400 μM additive; for Kd: mAb3 from culture fed with 400 μM additive. The protocol:
Binding of samples after 5-ThioFuc treatment was investigated by surface plasmon resonance technology using a Biacore T200 system (GE Healthcare, Uppsala, Sweden). The analysis temperature was set to 25° C. and sample compartment temperature to 15° C. […] The anti-His antibody was further used to capture His-tagged FcγRIIIa V176 ([…]) from AcroBiosystems (Newark, Del., USA).
Binding was recorded continuously, while unspecific binding and injection artefacts were subtracted automatically. Single-cycle kinetics were used with a dissociation time of 600 s at a flow rate of 30 μL/min. Data collection rate was performed at 10 Hz. Following each experiment, both flow cells were regenerated for 30 s with 10 mM glycine-HCl pH 1.5 according to kit instructions. Data of three technical and two biological replicates were fitted with a 1:1 binding model. The global dissociation constant KD was determined from the ratio of the kinetic rate constants for dissociation (kd) and association (ka) values. Data are presented in Table 1 as fold change compared to the control.
(In general: Surface plasmon resonance follows binding to a sensor surface in real time, without labels.)

For test [1], the system named is CHO cell line producing a fusion protein. The experiment in a line: Glycosylation profile (UPLC-MS of released glycans) of fusion protein from fed-batch. Format: cell-based, Chinese hamster. As to conditions: 400 μM additive, day 12. How it is done:
(§1) Glycosylation patterns were analyzed by ultra-performance liquid chromatography coupled to a mass spectrometer (UPLC-MS). The purified antibody was denaturated and the glycans were released from the antibody by digestion with peptide N-glycosidase F (PNGase F) followed by labeling the glycans with the GlycoWorks™ RapiFluor-MS™ N-Glycan Kit according to the manufacturer protocol. For the analysis, an UPLC glycan column (2.1×150 mm) that separated the glycans according to their […] was used. The chromatography was performed at 45° C. using 50 mM ammonium formate (A), pH 4.4 solution and an acetonitrile (B) gradient. In detail, at the beginning the ratio of A:B was 20:80 (0 min) and changed to 27:73 at 3 min and 37:63 at 35 min at a flow rate of 0.5 ml/min. From 36.5 min to 39.5 min only A was used as mobile phase and the flow rate was reduced to 0.2 ml/min. Subsequently, the ratio was changed to 20% A:80% B and the flowrate was increased to 0.5 ml/min at 43.1 min until the end of the process at 55 min. The detection was performed by a fluorescence detector with an excitation wavelength of 265 nm and an emission wavelength of 425 nm. The identification of the glycan structures was performed by MS using positive electro spray ionization (ESI), which was calibrated every 30 s with a standard.
(§2) Four different clones of Chinese hamster ovary (CHO) cells expressing three different monoclonal antibodies (mAb) and a fusion protein were tested. Cells were cultivated in spin tubes between 14 and 20 days at 37° C., 5% CO2, and 80% humidity. As starting cell density, 3×10^5 cells/mL in 30 mL Cellvento®4CHO media (pH 7.0±0.1) was used for clone 1 and 2 producing mAb1 and mAb2, respectively (Cellvento® Platform). Cells were cultivated at an agitation of 320 rpm and were fed on day 3, 5, 10, 12 and 14 with 3% volume of Cellvento® 4Feed (v/v) and on day 7 with 6% (v/v) of the feed. Clone 3 and 4 producing mAb3 and a fusion protein were inoculated at the same cell density in 30 mL Ex-Cell® Advanced Media (pH 7.2±0.1) while agitation was set to 230 rpm (Ex-Cell® Platform). Clones 3 and 4 were fed with […] Advanced Feed (v/v) on day 3, 5, 7, 10, 12, 14 and 17. […] The pH of all Cellvento® feeds was adjusted to 7.0±0.1 and Ex-Cell® Feeds were adjusted to 8.5±0.1. The glucose level was maintained above 4 g/L by adding a specific amount of a 400 g/L glucose stock solution on demand to up to 6 g/L during the week and up to 13 g/L over the weekend. Glucose and titer were detected in the supernatant with the bioprocess analyzer CEDEX Bio HT (Roche, Mannheim, Germany).
(§3) To investigate the glycosylation profile during the fed-batch experiment samples were centrifugated and antibodies and Fc-fusion proteins were purified from the cell culture supernatant using protein A PhyTips® (PhyNexus Inc, San Jose, Calif.). Glycosylation patterns were analyzed as described by ultra-performance liquid chromatography coupled to a mass spectrometer (UPLC-MS) using the GlycoWorks™ RapiFluor-MS™ N-Glycan Kit.
(§4) Glycosylation profile on day 12 was visualized since harvest of recombinant produced proteins on day 12 is common. Quantification of the glycans was obtained using the relative peak area of the fluorescence signal. Almost all peaks were assigned to glycan structures according to their mass. Unknown glycan structures and signals without mass detection were summarized as unknown species (not shown). Four different clones of Chinese hamster ovary (CHO) cells expressing three different monoclonal antibodies (mAb) and a fusion protein were tested. […] The known positive control achieved a 14% fucosylation level on day 12 by increasing the afucosylation to 78%. The same amount of afucosylation compared to the known fucose-analogue acetylated 2F-Fucose was only achieved by clone 3 expressing mAb3 leading to about 34% afucosylation on day 12 (FIG. 8 C).

Test [2] deals with CHO cell line producing mAb3. Description: Glycosylation profile (UPLC-MS of released glycans) of mAb3 from fed-batch. Format: cell-based, Chinese hamster. The conditions noted are these: mAb3, 400 μM additive. The protocol:
as §1, §2, §3
as §4, with “C). […]” for “C).”

The subject of test [3] is CHO cell line producing mAb1. Description: Glycosylation profile (UPLC-MS of released glycans) of mAb1 from fed-batch. Format: cell-based, Chinese hamster. The conditions noted are these: for reduction of the fucosylation compared to the control: mAb1, same concentration of both additives; for fucosylation level / incorporation of the fucose-analogue: mean of day 7, 10 and 12. The protocol: as §1, §2, §3
as §4, with “C). […]” for “C).”

The test system of test [4] is CHO cell line producing mAb2. The experiment in a line: Glycosylation profile (UPLC-MS of released glycans) of mAb2 from fed-batch. Format: cell-based, Chinese hamster. As to conditions: mAb2, 400 μM additive, day 12. How it is done: as §1, §2, §3
Glycosylation profile on day 12 was visualized since harvest of recombinant produced proteins on day 12 is common. Quantification of the glycans was obtained using the relative peak area of the fluorescence signal. Almost all peaks were assigned to glycan structures according to their mass. Unknown glycan structures and signals without mass detection were summarized as unknown species (not shown). […]

Test [5] has as its system CHO cell line producing mAb3. The experiment in a line: Fed-batch cell performance (viable cell density), clone 3 producing mAb3. Format: cell-based, Chinese hamster. As to conditions: mAb3, feed with 400 μM additive. The protocol: Four different clones of Chinese hamster ovary (CHO) cells expressing three different monoclonal antibodies (mAb) and a fusion protein were tested. Cells were cultivated in spin tubes between 14 and 20 days at 37° C., 5% CO2, and 80% humidity. As starting cell density, 3×10^5 cells/mL in 30 mL Cellvento®4CHO media (pH 7.0±0.1) was used for clone 1 and 2 producing mAb1 and mAb2, respectively (Cellvento® Platform). Cells were cultivated at an agitation rate of 320 rpm and were fed on day 3, 5, 10, 12 and 14 with 3% volume of Cellvento® 4Feed (v/v) and on day 7 with 6% (v/v) of the feed. Clone 3 and 4 producing mAb3 and a fusion protein were inoculated at the same cell density in 30 mL Ex-Cell® Advanced Media (pH 7.2±0.1) while agitation was set to 230 rpm. Clones 3 and 4 were fed with 5% Ex-Cell® Advanced Feed (v/v) on day 3, 5, 7, 10, 12, 14 and 17. […]
The glucose level was maintained above 4 g/L by adding a specific amount of a 400 g/L glucose stock solution on demand to up to 6 g/L during the week and up to 13 g/L over the weekend. Glucose and titer were detected in the supernatant with the bioprocess analyzer CEDEX Bio HT (Roche, Mannheim, Germany) based on spectrophotometric and turbidometric methods. The viable cell density (VCD) and viability were evaluated with a Vi-CELL™ XR 2.04 cell counter (Beckman Coulter, Fullerton, Calif., USA). […]

[6] abbreviates: day 12, listed as acetylated 2F-Fucose.

A word on the Kd: it is the concentration at which binding is half-saturated. Turning to `CC(=O)OC1O[C@@H](C)[C@@H](OC(C)=O)[C@@H](OC(C)=O)[C@@H]1F` (stereo partly shown) [2F-Peracetylfucose, reference compound], the entries for the “Fold change (affinity vs control)” value with FcγRIIIa V176 (day 5), in the test on FcγRIIIa V176 (day 12) and in the test on FcγRIIIa V176 (day 14) were 1.3 fold, 3.6 fold and 4.4 fold, respectively. Besides, the Kd at FcγRIIIa V176 (day 5) was found to be 78 nM; at FcγRIIIa V176 (day 12), 34 nM; on FcγRIIIa V176 (day 14), 23 nM. Besides, the afucosylation in test [1] was 82%; in test [3] (mAb1, 400 μM additive, day 12) it was 60%; in test [4] it was 78%. The “incorporation of fucose analogue (% of the glycans)” value in test [1] is given as “without detectable incorporation”. Besides, the “% Afucosylated” value in test [2] (day 5) is reported as 14.9%; in test [2] (day 12, listed as 2F-PerAcFuc), 34.2%; in test [2] (setting [6]), “about 34%”; in test [2] (day 14), 40.9%. Besides, the “% fucose analogue (incorporated)” value in test [2] (day 5) was 0.3%; in test [2] (day 12), 0.2%; in test [2] (day 14), 0.12%. Further, the “% Fucosylated” value was 83.9% in test [2] (day 5, listed as 2F-PerAcFuc); “about 84%” in test [2] (day 5, listed as acetylated 2F-Fucose); 64.8% in test [2] (day 12, listed as 2F-PerAcFuc); 65% in test [2] (setting [6]); 57.4% in test [2] (day 14, listed as 2F-PerAcFuc); around 57% in test [2] (day 14, listed as acetylated 2F-Fucose). Besides, the fucosylation level entry in test [2] (day 7) was “about 78%”; in test [2] (day 10), around 72%. Also, in test [3] (mAb1, 400 μM additive, day 12), the core-fucosylated glycans was 36%. Besides, the “reduction of the fucosylation compared to the control” value was found to be 11% in test [3] (day 7), 50% in test [3] (day 10) and 58% in test [3] (day 12). Further, the core-fucosylation in test [4] was found to be 14%.
Regarding acetylated 5-Thio-L-Fucose, in test [5], the “reduced VCD (area under the curve until day 17, compared to the control)” value is reported as around 24%. Further, in test [1], the afucosylation is 52%, the “incorporation of fucose analogue (% of the glycans)” value was determined as 39% and the “reduction of core-fucosylation compared to the control” value is given as “about 63%”. Also, in test [3] (mAb1, 200 μM additive), the fucosylation level came out at 46% and the “incorporation of the fucose-analogue” value is given as 50%. For the same compound, in test [3] (mAb1, 400 μM additive, day 12), the core-fucosylated glycans entry was “about 26%” and the “incorporation of fucose analogue (% of the glycans)” value is on record as “about 70%”. Also, in test [3] (mAb1, 400 μM additive), the fucosylation level was 16% and the “incorporation of the fucose-analogue” value came out at 81%. In addition, in test [3] (mAb1, 800 μM additive), the fucosylation level was 9% and the “incorporation of the fucose-analogue” value is 87%. The core-fucosylation in test [4] turned out to be 8%.
